Measured values reported in BindingDB's records for doi:10.1016/j.bmcl.2009.03.149 (Gsk, 2009).

Tests used:
Experiment in all cases: Enzyme Inhibition Assay
Beta-secretase 1 = Beta-secretase 1 (Homo sapiens, UniProt P56817); details: pH 4.5; 22 °C
Cathepsin D = Cathepsin D (Homo sapiens, UniProt P07339)
Beta-secretase 2 = biological target: T1, Beta-secretase 2 (Homo sapiens, UniProt Q9Y5Z0)
T1 sequence (Q9Y5Z0 whole entry): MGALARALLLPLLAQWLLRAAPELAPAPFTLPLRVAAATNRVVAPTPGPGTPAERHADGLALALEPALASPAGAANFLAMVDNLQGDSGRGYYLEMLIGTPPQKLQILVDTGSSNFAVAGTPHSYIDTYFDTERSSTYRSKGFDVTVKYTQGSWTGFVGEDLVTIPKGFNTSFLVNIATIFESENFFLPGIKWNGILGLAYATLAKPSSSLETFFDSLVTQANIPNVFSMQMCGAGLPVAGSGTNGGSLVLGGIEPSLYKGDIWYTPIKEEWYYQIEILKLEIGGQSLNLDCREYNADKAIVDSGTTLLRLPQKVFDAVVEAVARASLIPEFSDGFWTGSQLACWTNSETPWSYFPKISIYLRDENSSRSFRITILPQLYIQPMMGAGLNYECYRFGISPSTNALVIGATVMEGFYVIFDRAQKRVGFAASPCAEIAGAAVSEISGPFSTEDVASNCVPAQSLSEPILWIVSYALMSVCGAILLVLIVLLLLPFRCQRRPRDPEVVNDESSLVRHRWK

Cathepsin D, sequence (P07339 65-162 limits assumed): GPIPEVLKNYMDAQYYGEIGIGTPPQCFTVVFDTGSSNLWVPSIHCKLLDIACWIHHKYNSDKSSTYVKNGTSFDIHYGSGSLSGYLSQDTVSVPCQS
Cathepsin D, sequence (P07339 169-412 limits assumed): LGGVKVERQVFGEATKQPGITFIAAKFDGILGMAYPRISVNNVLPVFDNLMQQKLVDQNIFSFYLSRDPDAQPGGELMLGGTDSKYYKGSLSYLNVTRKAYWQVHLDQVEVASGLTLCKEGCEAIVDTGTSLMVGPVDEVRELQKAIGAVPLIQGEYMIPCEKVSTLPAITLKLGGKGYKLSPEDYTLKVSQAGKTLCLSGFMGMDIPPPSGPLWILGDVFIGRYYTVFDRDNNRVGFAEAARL
Beta-secretase 1, sequence (P56817 whole entry): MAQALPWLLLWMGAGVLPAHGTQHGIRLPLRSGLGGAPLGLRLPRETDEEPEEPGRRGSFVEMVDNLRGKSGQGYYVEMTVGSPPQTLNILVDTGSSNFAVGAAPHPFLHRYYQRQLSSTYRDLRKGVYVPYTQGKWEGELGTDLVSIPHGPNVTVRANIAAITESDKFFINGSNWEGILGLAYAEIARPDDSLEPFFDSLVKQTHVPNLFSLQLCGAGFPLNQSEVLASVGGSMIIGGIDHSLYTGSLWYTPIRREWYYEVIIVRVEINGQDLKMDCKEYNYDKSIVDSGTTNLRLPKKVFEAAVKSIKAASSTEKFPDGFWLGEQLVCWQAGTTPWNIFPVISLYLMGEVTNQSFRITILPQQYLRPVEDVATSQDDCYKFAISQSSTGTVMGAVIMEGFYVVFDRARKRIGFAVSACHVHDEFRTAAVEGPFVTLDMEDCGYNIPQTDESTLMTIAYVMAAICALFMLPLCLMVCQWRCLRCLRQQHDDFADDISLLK

Row | IC50 (Beta-secretase 1) | IC50 (Cathepsin D) | IC50 (Beta-secretase 2) | IC50 (Cathepsin D; pH 4.5, 22 °C) | Structure (SMILES)
1 | 15 nM | 6610 nM | 490 nM | – | CCc1cn2c3c(cc(C(=O)N[C@@H](Cc4ccccc4)[C@H](O)CNC4CCOCC4)cc13)N(C)S(=O)(=O)CC2 [BMCL193674 Compound 6]
2 | 86 nM | – | 450 nM | 130 nM | CCc1cn2c3c(cc(C(=O)N[C@@H](Cc4ccccc4)[C@H](O)CNC4CCOCC4)cc13)OS(=O)(=O)CC2 [sulfone tricyclic analogue, 19]
